In series [1] the test system is calcineurin. Nature of the series: NFAT-luciferase activity assay in mouse primary acinar cells. The class given is cell-based. Particulars: 30 min pre-treatment; FK506 24 μM, CsA 16 μM, BAPTA-AM 64 μM. Here is the method:
(§1) Acinar cells were infected with Ad-NFAT-luciferase following a previously described procedure^10, 15, 16. The construct includes a luciferase gene placed downstream of an IL-4 promoter which contains nine tandem NFAT binding sites^10. Acinar cells were incubated with the NFAT-driven luciferase adenovirus for 1.5 hr prior to stimulation. All of the stated inhibitors were added for 30 min prior to stimulation with RC. NFAT-luciferase was measured using the luciferase assay system. Briefly, cells were spun at 1,000 rpm for 5 min, washed with PBS, and lysed using reporter lysis 5× buffer (Promega #E397A, Madison, Wis.). Samples were vortexed and spun at 12,000 g for 2 min. Supernatant was plated, and luminescence was measured using a Synergy H1 plate reader (BioTek, Winooski, Vt.) and normalized to total protein.

The test system of another series is NF-κB. Nature of the series: NF-κB-luciferase activity assay in AR42J cells. Format: cell-based. Particulars: FK506 24 μM, CsA 16 μM; P<0.05. The method, then: AR42J cells were differentiated towards an acinar phenotype by administering dexamethasone (100 nM) for 48-72 hr^17. AR42J cells were infected with Ad-NF-κB luciferase 16 h prior to stimulation using a previously described method^12. Following a wash with DMEM/F12 medium, acinar cells were evenly distributed in a 48-well plate and incubated for 30 min at 37° C. They were incubated with RC at varying concentrations and times. NF-κB-luciferase was measured using a commercially available luciferase assay (Promega, Madison, Wis.). Briefly, cells were spun at 1,000 rpm for 5 min, washed with PBS, and lysed using reporter lysis 5× buffer (Promega, catalog no. E397A). Samples were vortexed and spun at 12,000×g for 2 min. The supernatant was plated, and luminescence was measured using a Synergy H1 plate reader (BioTek, Winooski, Vt.) and normalized to […].

Series [2] is described as follows: Dissolution in ready-to-use iohexol formulation. Particulars: FK506 1 μM, CsA 10 μM. The class given is physicochemical.
The next series relates to AR42J cells. Nature of the series: Cell necrosis assay in AR42J cells. As to conditions: FK506 24 μM, CsA 16 μM. The class given is cell-based. The method, then: (§2) Acinar cells were incubated in a 48-well plate with 50 μg/ml of propidium iodide (PI) for 30 min prior to addition of RC. Fluorescence was measured at 536 nm excitation and 617 nm emission wavelengths over time a time course of up to 6 hr. Fluorescence was measured after cell lysis with 0.5% Triton-X 100 was used to normalize the results relative to total DNA.

Another series relates to PEP model in mice. Nature of the series: Intra-ductal RC infusion PEP model in mice: histological severity, serum amylase. Format: in vivo, mouse. From the text: The procedure for retrograde infusion into the CBD and pancreatic duct has been described before^14. Briefly, Swiss Webster mice were anesthetized with isoflurane. A midline incision was made to reveal the abdominal cavity. The duodenum was flipped to reveal its distal side and held in place by ligatures. […] needle was inserted through the anti-mesenteric aspect of the duodenum to cannulate the CBD. A small bull dog clamp was applied to the distal CBD (near the duodenum) to prevent back flow of the infusate into the duodenal lumen and to hold the cannula in place. A larger bull dog clamp was applied to the proximal CBD (near the liver) to prevent infusion into the liver and thus to direct flow to the pancreatic duct. Total volumes of 50-100 μl of iohexol, iopamidol, or normal saline (NS) were infused at 10-20 μl per min for 5 min using a P33 perfusion pump (Harvard Apparatus, Holliston, Mass.). Upon completion of the infusion, the bull dog clamps were released. The exterior abdominal wound was closed using 7 mm wound clips, and a single injection of buprenorphine (0.075 mg/kg) was given immediately after the surgery. Mice recovered on a heating pad for 30 min after the procedure. They were given free access to food and water after the surgery. The pancreas, duodenum, and spleen were fixed at room temperature for 24 hr in 4% paraformaldehyde. Paraffin-embedded sections were stained with hematoxylin an eosin (HE) and graded using a 20× objective over 10 separate fields in a blinded fashion. Pancreas tissue was graded for edema, inflammatory infiltrate, and necrosis as described by Wildi et al.^67. Whole blood samples were centrifuged at 1500×g for 5 min at 4° C. Serum amylase was measured using a Phadebas kit (Amersham Pharmacia, Rochester N.Y.) as previously described^68.

Another series deals with pancreatic acinar cells. Nature of the series: ATP level measurements in acinar cells. The class given is cell-based, mouse. Particulars: RC 12% for 3.5 hr. Here is the method: Following isolation, pancreatic acinar cells were cultured in DMEM/F12 Medium (0.5 ml/well of a 48-well plate) at 37° C. water bath and treated with RC±FK506. Cells were collected at indicated time points and lysed in 100 lysis buffer (100 mM Tris pH 7.75, 4 mM EDTA). ATP levels were measured from 20 μl aliquots of acinar cell lysates using the ENLITEN luciferase/luciferin reagent (Promega catalog no. FF2021).

Series [3] deals with duct manipulation (DM) model in mice. Nature of the series: Duct manipulation (DM) mild model with intraductal Cn inhibitors. The class given is in vivo, mouse. As to conditions: FK506 1 μM, CsA 10 μM. The method, then: PEP was induced as previously described^73. Briefly, 100 μl iohexol (Omnipaque, GE Healthcare, Princeton, N.J.) was infused retrograde into the biliopancreatic duct at a rate of 20 μl/min for 5 min. Mice from the ductal manipulation (DM) group received retrograde infusion of 50 μl normal saline into pancreatic ductal at a lower rate of 10 μl/min for 5 min. Mice were euthanized 24 hr after PEP induction by CO2 inhalation and cervical dislocation. Mice from the sham group received laparotomy only. The pancreas, duodenum, and spleen were placed en bloc in a cassette in order to maintain anatomical orientation (FIG. 18A). The tissues were fixed in 4% paraformaldehyde at room temperature for 24 hr. Paraffin-embedded sections were stained with hematoxylin and eosin (HE). Ten systematically selected fields at 200× magnification were graded in a blinded fashion from the head of the pancreas, which was identified by its juxtaposition to the duodenum. The grading score gave equal weight (from 0 to 3) for edema, inflammatory infiltration, and necrosis, as described^5. Edema indices were further delineated objectively by performing intensity thresholding using ImageJ software (NIH, Bethesda, Md.). […] Labelled areas within the parenchyma were marked as edema, and their surface area was calculated as a percentage of the total parenchymal area.

In series [4] the test system is calcineurin. Nature of the series: NFAT-luciferase activity assay in AR42J cells. Format: cell-based. Particulars: pretreatment; FK506 24 μM, CsA 16 μM, U73122 5 μM, 2-APB 100 μM, BAPTA 64 μM. Here is the method:
as §1

The test system of the next series is primary acinar cells. Nature of the series: Cell necrosis assay (propidium iodide uptake) in primary acinar cells. Format: cell-based, mouse. As to conditions: 6 hr incubation; U73122 5 μM, 2-APB 100 μM, BAPTA 64 μM, IKK-2 20 μM, FK506 24 μM, CsA 16 μM. The method, then: as §2

SMILES strings stand for the structures.

Take `C=CC[C@@H]1/C=C(\C)C[C@H](C)C[C@H](OC)[C@H]2O[C@@](O)(C(=O)C(=O)N3CCCC[C@H]3C(=O)O[C@H](/C(C)=C/[C@@H]3CC[C@@H](O)[C@H](OC)C3)[C@H](C)[C@@H](O)CC1=O)[C@H](C)C[C@@H]2OC` [FK506, tacrolimus]: the “effect on RC-induced rise in NFAT-luciferase” value with calcineurin [1] is listed as “largely prevented”. For the same molecule, in the series with NF-κB, the “reduction of RC-induced NF-κB” value is listed as 73%. For the same molecule, in series [2], the “dissolution in the ready-to-use iohexol formulation” value is “easily dissolved”. Also, the “effect on RC (12%)-induced acinar cell necrosis” value with AR42J cells is on record as “prevented”. Further, the “effect when given after PEP induction” value with PEP model in mice (FK506 1 mg/kg after the infusion of RC) is listed as “reduces pancreatic inflammation”. In the series with PEP model in mice (FK506 1 mg/kg intraperitoneal 1 hr prior and 2.5, 5.5, 12 hr after RC infusion), the serum amylase entry was “reduced down to the level of the NS sham condition”. Further, the “histological severity of the pancreas following pancreatitis” value with PEP model in mice (FK506 1 mg/kg intraperitoneal 1 hr prior and 2.5, 5.5, 12 hr after RC infusion, 24 hr) was “prevented”. Moreover, the “effect of FK506 compared with therapeutic indomethacin on RC-induced pancreatitis” value in the series with PEP model in mice (FK506 1 mg/kg, indomethacin 7 mg/kg IP after RC infusion) is given as “as robust”. For the same molecule, the “effect on RC-induced ATP depletion” value with pancreatic acinar cells is on record as “failed to prevent ATP depletion”. Further, the “effect on mild histological damage seen with DM” value in [3] is “did not affect”. Moreover, the “effect on RC (6%)-induced NFAT-luciferase activity” value in the series on calcineurin [4] is “prevented”. Also, the “effect on RC (12%)-induced acinar cell injury (PI uptake)” value in the series with primary acinar cells is “prevented”.

For the origin of these results see patent publication US20190314345A1, “CALCINEURIN INHIBITOR AND NON-STEROIDAL ANTI-INFLAMMATORY DRUG TO REDUCE RISK OF POST-IMAGING PANCREATITIS” (UNIVERSITY OF PITTSBURGH - OF THE COMMONWEALTH SYSTEM OF …, priority 2016, published 2019).
